One assay has as its system NCI-H358 cells. As to the kind of experiment: Cellular phospho-ERK assay. Type of assay: cell-based. The procedure:
NCI-H358 cells (ATCC® CRL-5807™) were cultured in T150 flask in growth medium (RPMI medium 1640-GlutaMAX™-1 (ThermoFisher Scientific 61870) containing 10% fetal bovine serum (ThermoFisher Scientific 10091148)). The cells were harvested in growth medium after TrypLE (ThermoFisher scientific 12604021) digestion and were seeded in 384-well collagen coated cell culture plate (Corning 356702) at a density of 15,000 cells/well, and incubated at 37° C., 5% CO2 overnight. The compound dose-response titrations were prepared and appropriate amounts of compounds were dispensed in 384-well intermediate plate using Echo 550 liquid handler. RPMI medium 1640-GlutaMAX™-I were added to the intermediate plate and transferred to 384-well cell culture plate, which was incubated at 37° C., 5% CO2 for 2 hours. After removal of medium from the plate, cells were lysed in lysis buffer from Alpha SureFire® Ultra™ Multiplex p-Erk and total Erk assay kit (PerkinElmer MPSU-PTERK) containing Halt™ Protease and Phosphotase inhibitor cocktail (ThermoFisher Scientific 78446) at room temperature with constant shaking at 300 rpm for 30 minutes. The cell lysates were then transferred to OptiPlate-384 plate (PerkinElmer 6005620) and the phosphorylation of Erk and total Erk levels were detected by Alpha SureFire Ultra Multiplex p-Erk kit (PerkinElmer MPSU-PTERK) following the manufacturer's protocol. Assay plates were read on an EnVision Multimode Plate Reader (PerkinElmer) and the ratio of p-Erk vs total Erk in each well was used as the final readout. Dose response curves were analyzed using a 4-parameter logistic model to calculate IC50 values using spotfire software.

The target in assay [1] is T1, Biotinylated KRAS G12C protein (Homo sapiens, UniProt P01116, C118S/C51S/C80L/G12C).
T1 construct: 183 amino acids; biotin on K10
The assay can be described thus: SOS-catalyzed nucleotide exchange assay. Type of assay: biochemical. The settings on record: apparent potency; preincubation time of 60 minutes prior to addition of SOS.

Where [2] appears, read: NCI-H358 cells, 2 hour incubation, ratio of p-Erk vs total Erk, read-out: IC50.
Setting [3] is: Homo sapiens, NCI-H358, 2 h, NCI-H358 cells, 2 hour incubation, ratio of p-Erk vs total Erk, read-out: IC50.

Structures are written as SMILES. Where two headings read alike, the source gives them in different places.

T1 sequence (P01116 with tags, fused parts or gaps isoform P01116-2 G12C/C51S/C80L/C118S): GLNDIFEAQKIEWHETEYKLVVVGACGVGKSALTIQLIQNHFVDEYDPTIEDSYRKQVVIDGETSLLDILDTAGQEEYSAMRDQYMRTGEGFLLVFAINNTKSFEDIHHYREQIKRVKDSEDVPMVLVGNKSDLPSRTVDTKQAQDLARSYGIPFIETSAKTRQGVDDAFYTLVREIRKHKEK

For `C=CC(=O)N1CCN(c2cc(C(=O)NC(C)CN3CCC(C)(O)C3)nc3c2CCN(c2cccc4cccc(C)c24)C3)C[C@@H]1CC#N` (single isomer, unassigned) [Compound 74, 4-((S)-4-acryloyl-3-(cyanomethyl)piperazin-1-yl)-N-((S or R)-1-((R or S)-3-hydroxy-3-methylpyrrolidin-1-yl)propan-2-yl)-7-(8-methylnaphthalen-1-yl)-5,6,7,8-tetrahydro-1,7-naphthyridine-2-carboxamide], the IC50 – broadly, the concentration that inhibits the measured activity by half – in the assay with NCI-H358 cells (setting [2]) is 45 nM; in assay [1], 5.4 nM.
On to `C=C(F)C(=O)N1CCN(c2cc(C(=O)NC(C)CN3CCC(C)(O)C3)nc3c2CCN(c2cccc4cccc(C)c24)C3)C[C@@H]1CC#N` (single isomer, unassigned) [Compound 77, 4-((S)-3-(cyanomethyl)-4-(2-fluoroacryloyl)piperazin-1-yl)-N—((R or S)-1-((S or R)-3-hydroxy-3-methylpyrrolidin-1-yl)propan-2-yl)-7-(8-methylnaphthalen-1-yl)-5,6,7,8-tetrahydro-1,7-naphthyridine-2-carboxamide], for which the IC50 in the assay with NCI-H358 cells (setting [3]) amounted to 611 nM; in assay [1], 5 nM.
The like results for `C=CC(=O)N1CCN(c2cc(C(=O)N[C@H](C)CN3CC(F)(F)C3)nc3c2CCN(c2cccc4cccc(C)c24)C3)C[C@@H]1CC#N` [Compound 68, 4-((S)-4-acryloyl-3-(cyanomethyl)piperazin-1-yl)-N—((R)-1-(3,3-difluoroazetidin-1-yl)propan-2-yl)-7-(8-methylnaphthalen-1-yl)-5,6,7,8-tetrahydro-1,7-naphthyridine-2-carboxamide] were, in that order, 2890 nM and 29 nM.
The like results for `C=CC(=O)N1CCN(c2cc(C(=O)NC(CC)CN3CCCC3)nc3c2CCN(c2cccc4cccc(C)c24)C3)CC1` (racemic) [Compound 23, rac-4-(4-acryloylpiperazin-1-yl)-7-(8-methylnaphthalen-1-yl)-N-(1-(pyrrolidin-1-yl)butan-2-yl)-5,6,7,8-tetrahydro-1,7-naphthyridine-2-carboxamide] were, in that order, 9770 nM and 90 nM.
The like results for `C=CC(=O)N1CCN(c2cc(C(=O)N[C@H](C)CN(C)C)nc3c2CCN(c2cccc4cccc(C)c24)C3)CC1` [Compound 12, (R)-4-(4-acryloylpiperazin-1-yl)-N-(1-(dimethylamino)propan-2-yl)-7-(8-methylnaphthalen-1-yl)-5,6,7,8-tetrahydro-1,7-naphthyridine-2-carboxamide] were, in that order, 5940 nM and 66 nM.
Take `C=CC(=O)N1CCN(c2cc(C(=O)NC[C@H](C)N)nc3c2CCN(c2cccc4cccc(C)c24)C3)C[C@@H]1CC#N` [Compound 86, 4-((S)-4-acryloyl-3-(cyanomethyl)piperazin-1-yl)-N—((S)-2-aminopropyl)-7-(8-methylnaphthalen-1-yl)-5,6,7,8-tetrahydro-1,7-naphthyridine-2-carboxamide]: the IC50 with NCI-H358 cells (setting [3]) turned out to be 1650 nM; in assay [1], 11 nM.
Regarding `C=CC(=O)N1CCN(c2cc(C(=O)N3CCC[C@@H]3CN3CCCC3)nc3c2CCN(c2cccc4cccc(C)c24)C3)C[C@@H]1CC#N` [Compound 63, 2-((S)-1-acryloyl-4-(7-(8-methylnaphthalen-1-yl)-2-((R)-2-(pyrrolidin-1-ylmethyl)pyrrolidine-1-carbonyl)-5,6,7,8-tetrahydro-1,7-naphthyridin-4-yl)piperazin-2-yl)acetonitrile], the IC50 with NCI-H358 cells (Homo sapiens, NCI-H358, 2 h) stood at 427 nM; in assay [1] it was 8 nM.
Turning to `C=CC(=O)N1CCN(c2cc(C(=O)NCCN(C)C)nc3c2CCN(c2cccc4cccc(C)c24)C3)C[C@@H]1CC#N` [Compound 64, (S)-4-(4-acryloyl-3-(cyanomethyl)piperazin-1-yl)-N-(2-(dimethylamino)ethyl)-7-(8-methylnaphthalen-1-yl)-5,6,7,8-tetrahydro-1,7-naphthyridine-2-carboxamide], the IC50 is 106 nM with NCI-H358 cells (setting [3]) and 2.7 nM in assay [1].
In the case of `C=CC(=O)N1CCN(c2cc(C(=O)NC(C)CN3CCC(C)(O)C3)nc3c2CCN(c2cccc4cccc(C)c24)C3)C[C@@H]1CC#N` (single isomer, unassigned) [Compound 75, 4-((S)-4-acryloyl-3-(cyanomethyl)piperazin-1-yl)-N-((R or S)-1-((S or R)-3-hydroxy-3-methylpyrrolidin-1-yl)propan-2-yl)-7-(8-methylnaphthalen-1-yl)-5,6,7,8-tetrahydro-1,7-naphthyridine-2-carboxamide], the half-inhibitory concentration (IC50) in the assay with NCI-H358 cells (setting [2]) turned out to be 68 nM; in assay [1], 7.2 nM.
For the molecule `C=CC(=O)N1CCN(c2cc(C(=O)N[C@H](C)CN(C)C)nc3c2CCN(c2c(Cl)c(C)cc4[nH]ncc24)C3)CC1` [Compound 83, (R)-4-(4-acryloylpiperazin-1-yl)-7-(5-chloro-6-methyl-1H-indazol-4-yl)-N-(1-(dimethylamino)propan-2-yl)-5,6,7,8-tetrahydro-1,7-naphthyridine-2-carboxamide], the IC50 with NCI-H358 cells (setting [3]) stood at 1600 nM; in assay [1] it was 90 nM.
As to `C=CC(=O)N1CCN(c2cc(C(=O)NCC[C@H]3CCCN3)nc3c2CCN(c2cccc4cccc(C)c24)C3)C[C@@H]1CC#N` [Compound 104, 4-((S)-4-acryloyl-3-(cyanomethyl)piperazin-1-yl)-7-(8-methylnaphthalen-1-yl)-N-(2-((R)-pyrrolidin-2-yl)ethyl)-5,6,7,8-tetrahydro-1,7-naphthyridine-2-carboxamide], the results for the IC50 (in the assay on NCI-H358 cells (setting [3]); in assay [1]) were 4900 nM and 12 nM, respectively.
The like results for `C=CC(=O)N1CCN(c2cc(C(=O)N[C@H](C)CN3CC(O)(C(F)(F)F)C3)nc3c2CCN(c2cccc4cccc(C)c24)C3)C[C@@H]1CC#N` [Compound 69, 4-((S)-4-acryloyl-3-(cyanomethyl)piperazin-1-yl)-N-((R)-1-(3-hydroxy-3-(trifluoromethyl)azetidin-1-yl)propan-2-yl)-7-(8-methylnaphthalen-1-yl)-5,6,7,8-tetrahydro-1,7-naphthyridine-2-carboxamide] were, in that order, 2000 nM and 22 nM.
The like results for `C=CC(=O)N1CCN(c2cc(C(=O)N[C@H](C)CN(C)C)nc3c2CCN(c2c(Cl)c(C)cc4[nH]ncc24)C3)C[C@@H]1CC#N` [Compound 84, 4-((S)-4-acryloyl-3-(cyanomethyl)piperazin-1-yl)-7-(5-chloro-6-methyl-1H-indazol-4-yl)-N—((R)-1-(dimethylamino)propan-2-yl)-5,6,7,8-tetrahydro-1,7-naphthyridine-2-carboxamide] were, in that order, 96 nM and 0.9 nM.
The like results for `C=CC(=O)N1CCN(c2cc(C(=O)NC3(CN)CC3)nc3c2CCN(c2cccc4cccc(C)c24)C3)C[C@@H]1CC#N` [Compound 88, (S)-4-(4-acryloyl-3-(cyanomethyl)piperazin-1-yl)-N-(1-(aminomethyl)cyclopropyl)-7-(8-methylnaphthalen-1-yl)-5,6,7,8-tetrahydro-1,7-naphthyridine-2-carboxamide] were, in that order, 1000 nM and 4.3 nM.
As to `C=CC(=O)N1CCN(c2cc(C(=O)NC3(CC)CCNC3)nc3c2CCN(c2cccc4cccc(C)c24)C3)C[C@@H]1CC#N` (mixture of isomers) [Compound 101, 4-((S)-4-acryloyl-3-(cyanomethyl)piperazin-1-yl)-N-((R)-3-ethylpyrrolidin-3-yl)-7-(8-methylnaphthalen-1-yl)-5,6,7,8-tetrahydro-1,7-naphthyridine-2-carboxamide, as a mixture with 4-((S)-4-acryloyl-3-(cyanomethyl)piperazin-1-yl)-N-((S)-3-ethylpyrrolidin-3-yl)-7-(8-methylnaphthalen-1-yl)-5,6,7,8-tetrahydro-1,7-naphthyridine-2-carboxamide], the IC50 stood at 1800 nM in the assay on NCI-H358 cells (setting [3]) and 4.5 nM in assay [1].
For the molecule `C=CC(=O)N1CCN(c2cc(C(=O)NCCN(C)C)nc3c2CCN(c2cccc4ccccc24)C3)C[C@@H]1CC#N` [Compound 60, (S)-4-(4-acryloyl-3-(cyanomethyl)piperazin-1-yl)-N-(2-(dimethylamino)ethyl)-7-(naphthalen-1-yl)-5,6,7,8-tetrahydro-1,7-naphthyridine-2-carboxamide], the IC50 came out at 375 nM in the assay with NCI-H358 cells (setting [3]) and 8.8 nM in assay [1].
As to `C=CC(=O)N1CCN(c2c(C)c(C(=O)N[C@H](C)CN(C)C)nc3c2CCN(c2cccc4cccc(C)c24)C3)C[C@@H]1CC#N` (racemic) [Compound 85, 4-((S)-4-acryloyl-3-(cyanomethyl)piperazin-1-yl)-N—((R)-1-(dimethylamino)propan-2-yl)-3-methyl-7-(8-methylnaphthalen-1-yl)-5,6,7,8-tetrahydro-1,7-naphthyridine-2-carboxamide], the values for the IC50 (with NCI-H358 cells (setting [3]); in assay [1]) were 3550 nM and 180 nM, respectively.
